The source of these data is patent US5314904A (priority 1991, dated 1994).

≈ marks a conversion by molar mass, not a printed value. Read-outs that look alike come from different tables or passages of the source.

Data set [1] has as its system Gardnerella vaginalis. Briefly: MIC in vitro, Gardnerella vaginalis (NCCLS M11-T2, agar Wilken-Chalgren). It is filed as cell-based. Particulars: for MIC: read-out: MIC Range of Concentration Value. An excerpt:
(§1) Forty strains of Bacteroides bivius-disiens, 23 strains of Gardnerella vaginalis, 31 strains of the species Lactobacillus and 13 strains of Mobiluncus, 35 strains (from Iowa) and 25 strains (from Manitoba) of Neisseria gonorrhoeae, 25 strains of Haemophilus ducreyi and 6 strains of Chlamydia trachomatis have been analyzed.
(§2) Forty strains of Bacteroides bivius-disiens, 23 strains of Gardnerella vaginalis, 31 strains of Lactobacillus spp., 13 strains of Mobiluncus spp., 6 strains of Chlamydia trachomatis, 60 strains of Neisseria gonorrhoeae and 25 strains of Haemophilus ducreyi were obtained by culture collections supplied from: […]

For data set [2], the system named is Lactobacillus spp. The data set is described as follows: MIC in vitro, Lactobacillus spp. (NCCLS M11-T2, agar Wilken-Chalgren). Particulars: for MIC: read-out: MIC Range of Concentration Value. It counts as cell-based.
Source text: as §1, §2

The conditions of data set [3]: cited from earlier work.
Data set [4] deals with Mobiluncus spp. Briefly: MIC in vitro, Mobiluncus spp. (NCCLS M11-T2, agar Wilken-Chalgren). To be noted: for MIC: read-out: MIC Range of Concentration Value. It counts as cell-based.
Source text: as §1, §2

Data set [5] concerns Bacteroides bivius-disiens. Briefly: MIC in vitro, Bacteroides bivius-disiens (NCCLS M11-T2, agar Wilken-Chalgren). To be noted: 40 strains; for MIC: read-out: MIC Range of Concentration Value. It counts as cell-based.
Source text: as §1, §2

In data set [6] the test system is Mycoplasma hominis. The data set is described as follows: MIC in vitro, Mycoplasma hominis (Hoban et al. method). It is filed as cell-based. Particulars: Metamycoplasma hominis. An excerpt: (§3) The determination of the MIC with respect to Neisseria gonorrhoeae has been carried out according to the NCCLS M7-A2 method, while the determination of th MIC with respect to Chlamydia trachomatis, Mycoplasma hominis, Ureaplasma urealyticum and Haemophilus ducrey has been carried out according to Hoban D. et al. "In vitro activity of lomefloxacin against Chlamydia trachomatis, Neisseria gonorrhoeae, Haemophilus ducreyi, Mycoplasma hominis and Ureaplasma urealyticum." Diagn. Microbiol. Infect. Dis., 12, 83S-86S (1989).

Data set [7] relates to Neisseria gonorrhoeae. The data set is described as follows: MIC in vitro, Neisseria gonorrhoeae (NCCLS M7-A2). It counts as cell-based.
Source text: as §1
(§4) Forty strains of Bacteroides bivius-disiens, 23 strains of Gardnerella vaginalis, 31 strains of Lactobacillus spp., 13 strains of Mobiluncus spp., 6 strains of Chlamydia trachomatis, 60 strains of Neisseria gonorrhoeae and 25 strains of Haemophilus ducreyi were obtained by culture collections supplied from:
as §3

Data set [8] concerns Haemophilus ducreyi. Briefly: MIC in vitro, Haemophilus ducreyi (Hoban et al. method). It counts as cell-based.
Source text: (§5) Forty strains of Bacteroides bivius-disiens, 23 strains of Gardnerella vaginalis, 31 strains of the species Lactobacillus and 13 strains of Mobiluncus, 35 strains (from Iowa) and 25 strains (from Manitoba) of Neisseria gonorrhoeae, 25 strains of Haemophilus ducreyi and 6 strains of Chlamydia trachomatis have been analyzed. The determination of the minimum inhibitory concentration on the strains of the four types of anaerobic bacteria has been carried out according to NCCLS M11-T2 method (National Committee for Clinical Laboratory Standards. Methods for antimicrobial testing of anaerobic bacteria--second edition: Tentative Standard. NCCLS M11-T2, Villanova, Pa. NCCLS; 1989) on agar Wilken-Chalgren (Difco Laboratories, Detroit, Mich.) to which blood has been added.
The strains of Haemophilus ducreyi have been grown on chocolate agar for 24 hours at 35° C. in an atmosphere of carbon dioxide. After each material has been isolated, it is applied on chocolate agar containing appropriate dilution of antibiotic (Hoban D. et al. "In vitro activity of lomefloxacin against Chlamydia trachomatis, Neisseria gonorrhoeae, Haemophilus ducreyi, Mycoplasma hominis and Ureaplasma urealyticum". Diagn. Microbiol. Infect. Dis. 12, 83S-86S, 1989). The plates are incubated in an atmosphere containing carbon dioxide with increasing moisture at 35° C. for 48 hours.
as §2

Data set [9] deals with Chlamydia trachomatis. Briefly: MIC in vitro, Chlamydia trachomatis (Hoban et al. method). It is filed as cell-based.
Source text: as §5, §4, §3

Data set [10] has as its system Ureaplasma urealyticum. The data set is described as follows: MIC in vitro, Ureaplasma urealyticum (Hoban et al. method). It counts as cell-based.
Source text: as §3

In the case of `CCC[C@@H]1C[C@@H](C(=O)N[C@@H]([C@H]2O[C@H](SC)[C@H](O)[C@@H](O)[C@H]2O)[C@H](C)Cl)N(C)C1` [Clindamycin], the MIC50 in [1] (23 strains) is not above 0.06 µg/mL; in data set [2] (31 strains), 0.25 µg/mL (≈ 0.588 µM); in [4] (13 strains), not above 0.06 µg/mL; in data set [5] it was not above 0.06 µg/mL. Also, the MIC90 in [1] (23 strains, read-out: MIC 90%) is less than 0.06 µg/mL; in data set [2] (31 strains, read-out: MIC 90%), 4 µg/mL (≈ 9.41 µM); in data set [4] (13 strains, read-out: MIC 90%), less than 0.06 µg/mL; in data set [5], less than 0.06 µg/mL. Also, the MIC in data set [1] (23 strains) is 0.06 to 0.25 µg/mL (≈ 0.141 to 0.588 µM); in data set [2] (31 strains) it was 0.06 to 4 µg/mL (≈ 0.141 to 9.41 µM); in [4] (13 strains), not above 0.06 µg/mL; in [5], not above 0.06 µg/mL. Besides, the side effects result in [3] (compared with drugs currently used) is “serious side effects, particularly on the gastrointestinal tract with serious forms of diarrhea and pseudo-membranous colitis that can even lead to the death of the patient”.
With `Cc1ncc([N+](=O)[O-])n1CCO` [Metronidazole], the MIC90 in data set [1] was more than 16 µg/mL; in [2] it was more than 16 µg/mL; in data set [4], more than 16 µg/mL; in data set [5] it was 4 µg/mL (≈ 23.4 µM). The MIC50 in [1] (23 strains) was more than 16 µg/mL; in data set [2] (31 strains) it was more than 16 µg/mL; in [4] (13 strains), more than 16 µg/mL; in data set [5], 2 µg/mL (≈ 11.7 µM). The values for the MIC in data set [2] (31 strains) and in data set [5] were more than 16 µg/mL and 0.5 to 8 µg/mL (≈ 2.92 to 46.7 µM), respectively. Moreover, in [3] (in vivo), the side effects result is “serious side effects particularly on the blood and on the central nervous system”.
Take `CC1(C)S[C@@H]2[C@H](NC(=O)[C@H](N)c3ccccc3)C(=O)N2[C@H]1C(=O)O` [Ampicillin]: the MIC90 was less than 0.5 µg/mL in data set [1]; 1 µg/mL (≈ 2.86 µM) in [2] (31 strains, read-out: MIC 90%); 4 µg/mL (≈ 11.4 µM) in [4] (13 strains, read-out: MIC 90%); 64 µg/mL (≈ 183 µM) in [5]. The MIC50 in data set [1] (23 strains) is not above 0.5 µg/mL; in [2] (31 strains), not above 0.5 µg/mL; in data set [4] (13 strains) it was not above 0.5 µg/mL; in [5], 4 µg/mL (≈ 11.4 µM). In addition, the MIC in data set [1] (23 strains) is 0.5 to 2 µg/mL (≈ 1.43 to 5.72 µM); in data set [2] (31 strains), 0.5 to 2 µg/mL (≈ 1.43 to 5.72 µM); in data set [4] (13 strains) it was 0.5 to 4 µg/mL (≈ 1.43 to 11.4 µM).
As for `CO[C@H]1/C=C/O[C@@]2(C)Oc3c(C)c(O)c4c(O)c(c5c(nc6cc(C)ccn65)c4c3C2=O)NC(=O)/C(C)=C\C=C\[C@H](C)[C@H](O)[C@@H](C)[C@@H](O)[C@@H](C)[C@H](OC(C)=O)[C@@H]1C` [Rifaximin, 4-desoxy-4'-methyl-pyrido [1'2':1.2] imidazo [5.4-c] rifamycin SV], the MIC50 in [6] (20 strains) is 64 µg/mL (≈ 81.4 µM); in [7] (60 strains) it was 0.25 µg/mL (≈ 0.318 µM); in data set [1] (23 strains), 0.5 µg/mL (≈ 0.636 µM); in [8] (25 strains), 0.25 µg/mL (≈ 0.318 µM); in data set [2] (31 strains) it was 0.12 µg/mL (≈ 0.153 µM); in data set [4] (13 strains), not above 0.03 µg/mL. The MIC50 in data set [10] (25 strains) was found to be 64 µg/mL (≈ 81.4 µM); in [5], 0.12 µg/mL (≈ 0.153 µM). Moreover, the MIC90 is not below 64 µg/mL in [6] (20 strains); 16 µg/mL (≈ 20.4 µM) in data set [7]; 1 µg/mL (≈ 1.27 µM) in data set [1] (23 strains, read-out: MIC 90%); 0.5 µg/mL (≈ 0.636 µM) in data set [8]; 0.5 µg/mL (≈ 0.636 µM) in data set [2]; less than 20 µg/mL in data set [9] (Chlamydia trachomatis, 6 strains). The MIC90 in data set [4] (13 strains, read-out: MIC 90%) is less than 0.03 µg/mL; in data set [10] (25 strains) it was more than 64 µg/mL; in [5], 0.25 µg/mL (≈ 0.318 µM). The MIC was not below 64 µg/mL in [6] (20 strains, read-out: MIC Range of Concentration Value); not below 64 µg/mL in [6] (read-out: M.I.C.); 0.25 to 1 µg/mL (≈ 0.318 to 1.27 µM) in data set [1] (23 strains); 0.03 to 0.5 µg/mL (≈ 0.0382 to 0.636 µM) in [8] (25 strains, read-out: MIC Range of Concentration Value); 0.3 to 1 µg/mL (≈ 0.382 to 1.27 µM) in data set [2] (31 strains); 10 to 20 µg/mL (≈ 12.7 to 25.4 µM) in data set [9] (Chlamydia trachomatis, 6 strains, read-out: MIC Range of Concentration Value). The MIC is more than 20 µg/mL in data set [9] (Chlamydia trachomatis, read-out: M.I.C.); not above 0.03 µg/mL in data set [4] (13 strains); not below 64 µg/mL in data set [10]; 0.03 to 0.5 µg/mL (≈ 0.0382 to 0.636 µM) in data set [5]. For the same molecule, the susceptibility entry in data set [9] is reported as “has shown susceptibility to rifaximin”.

What is called MIC50 is the lowest concentration that inhibits either 50% of growth or 50% of the strains tested, depending on the study.
